Laboratory results reported in patent publication US20230321171A1, “ANTI-COCCIDIAL COMPOSITION COMPRISING MANGOSTEEN AND USES THEREOF” (CJ CHEILJEDANG CORPORATION, priority 2020, published 2023).

What was measured:
[1] = test system: Eimeria acervulina; test: Protozoan (sporozoite) direct killing ability, Eimeria acervulina; format: cell-based; conditions: for Eimeria acervulina protozoal death rate (%): compared to PBS-treated negative control group; for Minimum concentration for killing 100% protozoa (ppm), Eimeria acervulina: tested 1 to 500 ppm
Protocol: (§1) In the present example, protozoan (sporozoite) direct killing ability evaluation was conducted against 3 representative Eimeria kinds known to be infected in most farms (E. tenella, E. acervulina, E. maxima).
(§2) A certain amount of oocysts of each protozoan was put in a tube containing glass beads and pulverized, and then to remove the crushed oocyst cell wall and other debris, internal sporocysts were purified using the percoll density gradient, and washed with PBS solution. A reagent comprising sodium taurocholic acid (Sigma aldrich, USA) and trypsin (Gibco, USA), respectively, was treated to sporocysts of Eimeria tenella, Eimeria acervulina and Eimeria maxima for excystation and they were incubated, and then they were washed with PBS solution once and protozoa were obtained.
(§3) After reacting the mangosteen pericarp extract, epicatechin, alpha-mangostin, xanthone and anticoccidial agents, salinomycin and diclazuril (hereinafter, material) with 3 kinds of Eimeria protozoa at various concentrations of 1 to 500 ppm, respectively, only alive protozoa (sporozoites) were counted through microscopic observation. Then, the death rate (%) of the protozoa when each material was treated compared to the PBS-treated negative control group was calculated and shown in Table 8 to Table 10 and Table 12, respectively, and the minimum concentration which directly killed the protozoa by 100% was shown in Table 11 below.

[2] = test system: Eimeria tenella; test: Protozoan (sporozoite) direct killing ability, Eimeria tenella; format: cell-based; conditions: for Eimeria tenella protozoal death rate (%): compared to PBS-treated negative control group; for Minimum concentration for killing 100% protozoa (ppm), Eimeria tenella: tested 1 to 500 ppm; for Eimeria tenella protozoal death rate: Table 12 comparison with individual components
Protocol: as §1, §2, §3

[3] = test system: Eimeria maxima; test: Protozoan (sporozoite) direct killing ability, Eimeria maxima; format: cell-based; conditions: for Eimeria maxima protozoal death rate (%): compared to PBS-treated negative control group; for Minimum concentration for killing 100% protozoa (ppm), Eimeria maxima: tested 1 to 500 ppm
Protocol: as §1, §2, §3

[4] = test system: Eimeria tenella; test: Protozoan (sporozoite) direct killing ability, Eimeria tenella; format: cell-based; conditions: Table 15, method similar to Example 2-1
[5] = test system: Eimeria tenella; test: In vivo anticoccidial efficacy evaluation in broilers challenge-inoculated with Eimeria tenella; design: species or system Ross broilers
Protocol: An in vivo anticoccidial efficacy evaluation test was performed in an animal experiment facility in Gyeongsangnam-do, South Korea. One-day-old female Ross broilers were individually weighed and randomly divided into groups to use in an experiment. Matters and conditions for experimental design were described in Table 2.
(§4) A breeding farm was managed according to the Korean poultry breeding management guidelines. Cages and the breeding farm were cleaned and disinfected before starting the test. The temperature of […] and the humidity of 40 to 50% of the breeding farm were maintained, and it was continuously monitored.
(§5) For the feed, Korea Feed Al-choi product was used, and each material (salinomycin (Cheil Bio Cheilsalino-60 product), xanthone (Sigma Aldrich X600 product), and the mangosteen extract prepared in Example 1-2 above) was added to the feed, respectively, at a concentration described in Table 3 below to be self-mixed. Antibiotics and supplements were not used in general feed and mixed feed, and no anticoccidial agent other than each material was added. Broilers were fed ad libitum throughout the experiment period. After putting 20 1-day-age broilers in cages randomly placed for each of the control group or test group and breeding, general feed was fed for 7 days, and then the mixed feed prepared above was ingested by dividing by control group or test group.
The feed formulation administered to the control group (negative control group or positive control group) and test group and whether coccidiosis was induced by Eimeria tenella were described in Table 3 below. 20 1-day-old broilers were put in a cage randomly arranged for each test group, and after 7 days of feeding the general feed, the formulated feed as described in Table 3 was divided into each test group and ingested.
14-day-old broilers were orally inoculated with 10,000 oocysts (90% sporulated Eimeria tenella oocysts) per individual to induce coccidiosis.
The anticoccidial efficacy by test group designed in Example 1-3 above was shown as an anticoccidial index (ACI), and the anticoccidial index was calculated by Equation 2 below. The ACI score is out of 200 points, and the higher the ACI score, the more excellent the anticoccidial ability, and when it is 120 points or more to less than 140 points, it is determined that it is effective as an anticoccidial material, and when it is 140 points or more to less than 160 points, it is determined that it is excellent as an anticoccidial material, and when it is 160 points or more, it is determined that the anticoccidial effect is very excellent. (Luis Miguel De Pablos et al., Anticoccidial activity of maslinic acid against infection with Eimeria tenella in chickens, Parasitol Res, 2010)
Anticoccidial index (ACI)=(survival rate after challenge inoculation (%))+(daily weight gain compared to negative control group (RWG, %))−(lesion score×10)−(fecal oocyst excretion amount index) (Equation 2)
1) Survival rate: the number of dead individuals was recorded daily, and post mortem autopsy was performed to determine a cause of mortality, and the number of individuals who died due to causes other than coccidiosis was excluded. The survival rate (%) up to the 8th day after challenge inoculation was used for anticoccidial index calculation.
2) Daily weight gain: body weight was measured for each cage before challenge inoculation with a protozoan into an individual and at the 7th day after challenge inoculation, and the difference was divided by the number of days to calculate the daily weight gain (ADG, g/d). ‘Daily weight gain compared to the negative control group (RWG, %)’which was calculated by dividing the daily weight gain (ADG, average daily gain; g/d) of each experimental group by the weight gain (ADG, g/d) of the non-infected negative control group and multiplying by 100 was used for anticoccidial index calculation. […]

[6] = Broiler growth effect (daily weight gain) due to intake in feed; format: in vivo, Ross broilers; conditions: formulated feed 60 ppm for 7 days
Protocol: An efficacy evaluation test was performed in an animal experiment facility in Gyeongsangnam-do, South Korea. One-day-old female Ross broilers were individually weighed and randomly divided into groups to use in an experiment. Matters and conditions for experimental design were described in Table 16.
as §4
as §5, with “A1-choi” for “Al-choi”, “17” for “3”, “group. The feed formulation administered to the control group (negative control group or positive control group) and test group was described in Table 17 below.” for “group.”
The body weight before feeding and on the 7th day after feeding the feed of Table 16 above into individuals was measured, and the difference was divided by the number of days to calculate the daily weight gain (ADG, g/d), and the result was shown in Table 18. For comparison between 6 treatment groups, Duncan post-test multiple comparison method was used, and statistical significance was verified using a SAS statistical program, and the result was shown in Table 18.

| SMILES | Eimeria acervulina protozoal death rate (%) ([1]; 1 ppm) | Eimeria acervulina protozoal death rate (%) ([1]; 5 ppm) | Eimeria acervulina protozoal death rate (%) ([1]; 10 ppm) | Eimeria acervulina protozoal death rate (%) ([1]; 50 ppm) | Eimeria acervulina protozoal death rate (%) ([1]; 100 ppm) | Eimeria acervulina protozoal death rate (%) ([1]; 125 ppm) | Eimeria acervulina protozoal death rate (%) ([1]; 250 ppm) | Eimeria acervulina protozoal death rate (%) ([1]; 500 ppm) | Minimum concentration for killing 100% protozoa (ppm), Eimeria acervulina [1] [ppm] | Eimeria tenella protozoal death rate (%) ([2]; 1 ppm) | Eimeria tenella protozoal death rate (%) ([2]; 5 ppm) | Eimeria tenella protozoal death rate (%) ([2]; 10 ppm) | Eimeria tenella protozoal death rate (%) ([2]; 50 ppm) | Eimeria tenella protozoal death rate (%) ([2]; 100 ppm) | Eimeria tenella protozoal death rate (%) ([2]; 125 ppm) | Eimeria tenella protozoal death rate (%) ([2]; 250 ppm) | Eimeria tenella protozoal death rate (%) ([2]; 500 ppm) | Minimum concentration for killing 100% protozoa (ppm), Eimeria tenella [2] [ppm] | Eimeria maxima protozoal death rate (%) ([3]; 1 ppm) | Eimeria maxima protozoal death rate (%) ([3]; 5 ppm) | other results |
| --- | --- | --- | --- | --- | --- | --- | --- | --- | --- | --- | --- | --- | --- | --- | --- | --- | --- | --- | --- | --- | --- |
| N#CC(c1ccc(Cl)cc1)c1c(Cl)cc(-n2ncc(=O)[nH]c2=O)cc1Cl (centres unmarked) [Diclazuril, diclazuril] | 0 | 0 | 0 | 0 | 0 | 23 | 12 | 44 | 500 | 0 | 0 | 0 | 0 | 0 | 0 | 35 | 44 | >500 | 0 | 0 | Eimeria maxima protozoal death rate (%) ([3]; 10 ppm): 0%; Eimeria maxima protozoal death rate (%) ([3]; 50 ppm): 0%; Eimeria maxima protozoal death rate (%) ([3]; 100 ppm): 0%; Eimeria maxima protozoal death rate (%) ([3]; 125 ppm): 0%; Eimeria maxima protozoal death rate (%) ([3]; 250 ppm): 16%; Eimeria maxima protozoal death rate (%) ([3]; 500 ppm): 30%; Minimum concentration for killing 100% protozoa (ppm), Eimeria maxima [3]: >500 ppm |
| Oc1cc(O)c2c(c1)O[C@H](c1ccc(O)c(O)c1)[C@H](O)C2 [Epicatechin, epicatechin] | – | – | – | – | – | – | – | – | – | – | – | – | – | – | – | – | – | – | – | – | Eimeria tenella protozoal death rate ([2]; 3.9 ppm): 0%; Eimeria tenella protozoal death rate ([2]; 7.8 ppm): 0%; Eimeria tenella protozoal death rate ([2]; 15.6 ppm): 0%; Minimum concentrataion of killing protozoa 100% (ppm) [4]: ≥500 ppm |
| CC[C@@H](C(=O)[C@@H](C)[C@@H](O)[C@H](C)[C@@H]1O[C@@H]([C@@H](CC)C(=O)O)CC[C@@H]1C)[C@H]1O[C@]2(C=C[C@@H](O)[C@]3(CC[C@@](C)([C@H]4CC[C@](O)(CC)[C@H](C)O4)O3)O2)[C@H](C)C[C@@H]1C [Salinomycin, salinomycin] | 0 | 0 | 0 | 0 | 60 | 73 | 100 | 100 | 250 | 0 | 0 | 0 | 0 | 46 | 74 | 100 | 100 | 500 | 0 | 0 | Intermediate body weight (14-day-old, before challenge inoculation) ([5]; formulated feed 60 ppm from day 7, female Ross broilers): 455.9; Appendix lesion score ([5]; formulated feed 60 ppm, 8th day after challenge inoculation, scale of 0-4): 2.7; End body weight (21-day-old, on the 7th day of challenge inoculation) ([5]; formulated feed 60 ppm, 10,000 E. tenella oocysts oral at 14 days): 917.6; Day 14~Day 21 ADG (daily weight gain) ([5]; formulated feed 60 ppm, E. tenella infected broilers): 62.46 g/day; Anticoccidial index (ACI) ([5]; formulated feed 60 ppm, Equation 2, out of 200 points): 141; Oocyst excretion amount/gram ([5]; formulated feed 60 ppm, feces of 6~8th day of challenge inoculation, McMaster chamber): 1.30E+08 /gram; RWG (daily weight gain compared to the negative control group) ([5]; formulated feed 60 ppm, relative to non-infected negative control group): 94%; Eimeria maxima protozoal death rate (%) ([3]; 10 ppm): 0%; Eimeria maxima protozoal death rate (%) ([3]; 50 ppm): 0%; Eimeria maxima protozoal death rate (%) ([3]; 100 ppm): 59%; Eimeria maxima protozoal death rate (%) ([3]; 125 ppm): 65%; Eimeria maxima protozoal death rate (%) ([3]; 250 ppm): 97%; Eimeria maxima protozoal death rate (%) ([3]; 500 ppm): 100%; Minimum concentration for killing 100% protozoa (ppm), Eimeria maxima [3]: 500 ppm; Daily weight gain (ADG) [6]: 46.86 g/day; End-initial body weight (7 days, g) [6]: 328 g; End body weight ([6]; non-infected broilers): 526 g |
